Experimental data published in ChEMBL document CHEMBL5550103, “Design, synthesis, and antiviral activity of 1-aryl-4-arylmethylpiperazine derivatives as Zika virus inhibitors with broad antiviral spectrum” (Bioorg Med Chem, 2024).
Activity calls are given as the source filed them. The rule behind the calls is not given here.

Legend:
[1] = Cytotoxicity against HUVECs assessed as reduction in cell viability at 5 uM incubated for 48 hrs by CCK-8 method relative to control; type: toxicity, cell-based; details: human, HUVEC cells, values are per cent of control
Zika virus [2] = experiment: Antiviral activity against ZIKV infected in HUVECs at 5 uM pre-infected with virus followed by compound addition and measured after 48 hrs by qRT-PCR analysis relative to control; type: functional; details: HUVEC
Human coronavirus OC43 = experiment: Antiviral activity against Human coronavirus OC43 infected in BHK-21 cells assessed as inhibition of viral replication pre-infected with virus for 24 hrs followed by compound addition and measured after 48 hrs by luciferase assay; type: functional, organism-based; details: Betacoronavirus 1, BHK-21
Zika virus [3] = experiment: Antiviral activity against ZIKV infected in HUVECs assessed as reduction in NS5 protein level measured after 48 hrs by Western blot analysis; type: functional, organism-based; details: HUVEC, dose 0.625-5 µM
Zika virus [4] = experiment: Antiviral activity against ZIKV infected in HUVECs assessed as inhibition of viral replication at 10 uM pre-infected with virus for 1 hr prior to compound addition for 1 hr followed by compound washout and measured after 48 hrs post infection by qRT-PCR analysis; type: functional, organism-based; details: HUVEC
Zika virus [5] = experiment: Antiviral activity against ZIKV infected in HUVECs assessed as inhibition of viral replication at 10 uM pretreated with cells for 1 hr followed by viral infection for 1 hr prior to compound washout and measured after 48 hrs post infection by qRT-PCR analysis; type: functional, organism-based; details: HUVEC, time 2.0 hrs
Zika virus [6] = experiment: Antiviral activity against ZIKV infected in HUVECs pre-infected with virus followed by compound addition and measured after 48 hrs by qRT-PCR analysis; type: functional, organism-based; details: HUVEC
HEK-293T = experiment: Cytotoxicity against HEK293T cells assessed as reduction in cell viability at >10 uM measured after 24 hrs by CCK-8 method; type: toxicity, cell-based; details: human
Zika virus [7] = experiment: Antiviral activity against ZIKV infected in HUVECs assessed as inhibition of viral replication at 10 uM incubated for 1 hr with subsequent addition of virus followed by compound washout and measured after 48 hrs post infection by qRT-PCR analysis; type: functional, organism-based; details: HUVEC
Zika virus [8] = experiment: Antiviral activity against ZIKV infected in HUVECs assessed as reduction in viral attachment to AXL; type: functional, organism-based; details: HUVEC
[9] = Selectivity index, ratio of CC50 for HUVECs to EC50 for ZIKA virus infected in HUVECs; type: toxicity; details: human, HUVEC cells; read-out: Ratio CC50/EC50
Influenza A virus = experiment: Antiviral activity against influenza A virus infected in HEK293T cells assessed as inhibition of viral replication pre-infected with virus followed by compound addition and measured after 24 hrs by luciferase assay; type: functional, organism-based; details: HEK-293T
[10] = Cytotoxicity against HUVECs assessed as reduction in cell viability incubated for 48 hrs by CCK-8 method; type: toxicity, cell-based; details: human, HUVEC cells
[11] = Metabolic stability in human liver microsomes assessed as half life preincubated with NADPH for 10 mins followed by compound addition and measured upto 30 mins by LC-MS/MS analysis; type: ADME, Microsome; details: time < 40 min
[12] = Metabolic stability in mouse liver microsomes assessed as half life preincubated with NADPH for 10 mins followed by compound addition and measured upto 30 mins by LC-MS/MS analysis; type: ADME, Microsome; details: time < 40 min
Zika virus [13] = experiment: Antiviral activity against ZIKV infected in HUVECs assessed as reduction in NS5 protein level at 1 uM measured after 48 hrs by Western blot analysis; type: functional, organism-based; details: HUVEC

SMILES	viability, % of control at 48 h, 5 µM [1]	inhibition at 5 µM (Zika virus [2])	EC50 (Zika virus [6])	selectivity ratio [9]	CC50 at 48 h [10]	further results
Cc1ccc(N2CCN(Cc3cc(N(C)CCN(C)CCN(C)C)ccc3C(F)(F)F)CC2)cc1	98%	< 10%	–	–	–	–
CN1CC2(CCN(c3ccnc(CN4CCN(c5ccc(Cl)cc5)CC4)c3)C2)C1	–	–	820 nM	> 61	> 50000 nM	EC50 (Human coronavirus OC43): 2200 nM; Activity (Zika virus [3]): Dose-Dependent Effect; Activity (Zika virus [4]): inactive; Activity (Zika virus [5]): Active; Activity (HEK-293T): Toxic; Activity (Zika virus [7]): Active; Activity (Zika virus [8]): inactive; EC50 (Influenza A virus): 2600 nM; half-life [11]: > 1.53 h; half-life [12]: 1.4 h
CN1CCN(c2ccnc(CN3CCN(c4ccc(Cl)cc4)CC3)c2)CC1	–	–	1460 nM	> 34	> 50000 nM	–
NC(=O)c1ncn([C@@H]2O[C@H](CO)[C@@H](O)[C@H]2O)n1 [RIBAVIRIN]	–	–	2550 nM	> 59	> 150000 nM	–
Cc1ccc(N2CCN(Cc3cc(N4CCC5(CCN(C)CC5)C4)ccn3)CC2)cc1	100%	< 10%	–	–	–	–
Cc1ccc(N2CCN(Cc3cc(N(C)CCN(C)C)ccn3)CC2)cc1	101%	< 10%	–	–	–	–
CN(C)CCN(CCN(C)C)c1ccnc(CN2CCN(c3ccc(C(F)(F)F)cc3)CC2)c1	104%	< 10%	–	–	–	–
Clc1ccc(N2CCN(Cc3cc(N4CCC5(CCCN5Cc5ccccc5)C4)ccn3)CC2)cc1 (stereo not drawn)	91%	49%	–	–	–	–
CN(C)CCN(C)c1ccc(C(F)(F)F)c(CN2CCN(c3ccncc3)CC2)c1	107%	< 10%	–	–	–	–
CN1CCC2(CC1)CCN(c1ccnc(CN3CCN(c4ccc(C(F)(F)F)cc4)CC3)c1)C2	–	–	2180 nM	14	30400 nM	–
CN(C)CCN(C)c1ccc(C#N)c(CN2CCN(c3ccc(Cl)cc3)CC2)c1	–	–	2190 nM	9	19800 nM	half-life [11]: > 1.53 h; half-life [12]: 0.548 h
CN(C)CCN(C)CCN(C)c1ccnc(CN2CCN(c3ccc(Cl)cc3)CC2)c1	–	–	870 nM	> 58	> 50000 nM	–
Cc1ccc(N2CCN(Cc3cc(N4CCCN(C)CC4)ccc3C(F)(F)F)CC2)cc1	105%	< 10%	–	–	–	–
CN(C)CCN(C)c1ccnc(CN2CCN(c3ccc(Cl)cc3)CC2)c1	–	–	950 nM	> 52	> 50000 nM	–
Cc1ccc(N2CCN(Cc3cc(N(C)CCN(C)C)ccc3C(F)(F)F)CC2)cc1	103%	< 10%	–	–	–	–
CN1CCC2(CC1)CCN(c1ccnc(CN3CCN(c4ccc(Cl)cc4)CC3)c1)C2	–	–	590 nM	54	31500 nM	–
Clc1ccc(N2CCN(Cc3cc(N4CCC5(CCN(Cc6ccccc6)CC5)C4)ccn3)CC2)cc1	–	–	150 nM	138	20700 nM	–
CN(C)CCN(C)c1ccnc(CN2CCN(c3ccc(C(F)(F)F)cc3)CC2)c1	103%	33%	–	–	–	–
Cc1ccc(N2CCN(Cc3cc(N4CCCN5CCCC5C4)ccn3)CC2)cc1 (stereo not drawn)	100%	< 10%	–	–	–	–
Cc1ccc(N2CCN(Cc3cc(N4CCCN(C)CC4)ccn3)CC2)cc1	105%	< 10%	–	–	–	–
CN(C)CCN(C)c1ccc(C(F)(F)F)c(CN2CCN(c3ccc(Cl)cc3)CC2)c1	–	–	1130 nM	20	22400 nM	–
Clc1ccc(N2CCN(Cc3cc(N4CC5CN(Cc6ccccc6)CC5C4)ccn3)CC2)cc1 (stereo not drawn)	–	–	2010 nM	> 25	> 50000 nM	–
CN1CCCN(c2ccc(C(F)(F)F)c(CN3CCN(c4ccc(C(F)(F)F)cc4)CC3)c2)CC1	–	–	930 nM	11	9890 nM	–
CN1CCCN(c2ccnc(CN3CCN(c4ccc(C(F)(F)F)cc4)CC3)c2)CC1	–	–	1320 nM	66	> 50000 nM	–
CN(C)CCN(C)c1ccc(C(F)(F)F)c(CN2CCN(c3ccc(C(F)(F)F)cc3)CC2)c1	–	–	2930 nM	5	14600 nM	–
C#C[C@@]1(O)[C@H](O)[C@@H](CO)O[C@H]1n1ccc2c(N)ncnc21	–	–	–	–	–	Activity (Zika virus [13]): Active; Activity (Zika virus [4]): Active; Activity (Zika virus [5]): inactive
CN1CC2CN(c3ccnc(CN4CCN(c5ccc(Cl)cc5)CC4)c3)CC2C1 (stereo not drawn)	–	–	1220 nM	> 41	> 50000 nM	–
CN(C)CCN(C)CCN(C)c1ccc(C(F)(F)F)c(CN2CCN(c3ccncc3)CC2)c1	–	–	390 nM	> 128	> 50000 nM	EC50 (Human coronavirus OC43): 2280 nM; Activity (Zika virus [3]): Dose-Dependent Effect; Activity (Zika virus [4]): inactive; Activity (Zika virus [5]): Active; Activity (HEK-293T): Toxic; Activity (Zika virus [7]): Active; Activity (Zika virus [8]): inactive; EC50 (Influenza A virus): 2690 nM; half-life [11]: > 1.53 h; half-life [12]: 2.31 h
CN1CCC2(CC1)CCN(c1ccc(C(F)(F)F)c(CN3CCN(c4ccc(C(F)(F)F)cc4)CC3)c1)C2	–	–	590 nM	4	2270 nM	–
